Source: patent publication US9133104B2 (Chroma Therapeutics Ltd., priority 2005, dated 2015)

How the values were obtained:
[1] = target: T1, histone deacetylase activity (HeLa nuclear extract); experiment: HDAC fluorescent activity assay (Biomol Fluor de Lys), HeLa nuclear extract; type: biochemical; conditions: Fluor de Lys substrate, IC50 range
T1 construct: Histone deacetylase activity from crude nuclear extract derived from HeLa cells was used for screening
Procedure, shortened: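 Crude HeLa nuclear extract (20 mM Hepes, 100 mM KCl, 0.2 mM EDTA, 0.5 mM DTT, 0.2 mM PMSF, 20% glycerol) incubated with acetyl-lysine Fluor de Lys substrate ± inhibitor; developer generates fluorophore. Background-subtracted % of vehicle control; IC50 from eight-point variable-slope sigmoidal fit.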

Hela cancer cell line = experiment: Cell inhibition assay (SRB cell viability), Hela; type: cell-based; conditions: Homo sapiens, HeLa, 72 h, Hela cells, IC50 range
Procedure, shortened: (§1)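 Log-phase Hela, U937 and HUT cells were seeded at 1000 cells/well, grown 24 h, then exposed to compound (20 uM final) for 72 h. Viability was read by sulphorhodamine B staining and expressed as % inhibition relative to DMSO control. IC50 values came from sigmoidal variable-slope fits of eight concentrations.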

U937 cancer cell line = experiment: Cell inhibition assay (SRB cell viability), U937; type: cell-based; conditions: Homo sapiens, U-937, U937 cells, 72 h, IC50 range
Description: The corresponding cancer cell lines (Hela, U937 and HUT) growing in log phase were harvested and seeded at 1000 cells/well (200 ul final volume) into 96-well tissue culture plates. Following 24 h of cell growth cells were treated with compounds (final concentration of 20 uM). Plates were then re-incubated for a further 72 h before a sulphorhodamine B (SRB) cell viability assay was conducted according to Skehan 1990 J Natl Canc Inst 82, 1107-1112.
Data were expressed as a percentage inhibition of the control, measured in the absence of inhibitor, as follows:— % inhibition=100−((S^i/S^o)×100) where S^i is the signal in the presence of inhibitor and S^o is the signal in the presence of DMSO. IC50 values were determined by non-linear regression analysis, after fitting the results of eight data points to the equation for sigmoidal dose response with variable slope (% activity against log concentration of compound), using Graphpad Prism software. […] NT=Not tested

HUT cancer cell line = experiment: Cell inhibition assay (SRB cell viability), HUT; type: cell-based; conditions: HUT cells, 72 h, IC50 range
Procedure, shortened: as §1

| IC50 [1] | IC50 (Hela cancer cell line) | IC50 (U937 cancer cell line) | IC50 (HUT cancer cell line) | Compound |
| --- | --- | --- | --- | --- |
| 101 to 1000 nM | > 3300 nM | 330 to 3300 nM | 330 to 3300 nM | CC(C)(C)OC(=O)[C@H](Cc1ccccc1)NCc1cncc(NC(=O)CCCCCCC(=O)NO)c1 [Compound 68, (S)-2-{[5-(7-Hydroxycarbamoyl-heptanoylamino)-pyridin-3-ylmethyl]-amino}-3-phenyl-propionic acid tert-butyl ester] |
| > 1000 nM | > 3300 nM | > 3300 nM | > 3300 nM | O=C(CCCCCCC(=O)Nc1ccccc1CN[C@H](C(=O)O)c1ccccc1)NO [Compound 41, (S)-[2-(7-Hydroxycarbamoyl-heptanoylamino)-benzylamino]-phenyl-acetic acid] |
| 101 to 1000 nM | > 3300 nM | 330 to 3300 nM | 330 to 3300 nM | O=C(CCCCCCC(=O)Nc1ccc(CN[C@@H](Cc2ccccc2)C(=O)OC2CCCC2)cc1)NO [Compound 91, (S)-2-[4-(7-Hydroxycarbamoyl-heptanoylamino)-benzylamino]-3-phenyl-propionic acid cyclopentyl ester] |
| 101 to 1000 nM | 330 to 3300 nM | 330 to 3300 nM | 330 to 3300 nM | CC(C)(C)OC(=O)[C@@H](NCc1cccc(NC(=O)CCCCCCC(=O)NO)c1)c1ccccc1 [Compound 35, (S)-[3-(7-Hydroxycarbamoyl-heptanoylamino)-benzylamino]-phenyl-acetic acid tert-butyl ester] |
| 101 to 1000 nM | 330 to 3300 nM | 330 to 3300 nM | 330 to 3300 nM | CC(C)(C)OC(=O)[C@@H](NC(=O)[C@H]1Cc2c([nH]c3ccccc23)CN1C(=O)CCCCCCC(=O)NO)c1ccccc1 [Compound 19, (S)-{[(R)-2-(7-Hydroxycarbamoyl-heptanoyl)-2,3,4,9-tetrahydro-1H-beta-carboline-3-carbonyl]-amino}-phenyl-acetic acid tert-butyl ester] |
| > 1000 nM | > 3300 nM | > 3300 nM | > 3300 nM | O=C(CCCCCCC(=O)Nc1ccccc1CN[C@H](C(=O)OC1CCCC1)c1ccccc1)NO [Compound 40, (S)-[2-(7-Hydroxycarbamoyl-heptanoylamino)-benzylamino]-phenyl-acetic acid cyclopentyl ester] |
| 101 to 1000 nM | 330 to 3300 nM | 330 to 3300 nM | 330 to 3300 nM | O=C(CCCCCCC(=O)Nc1cccc(CN[C@@H](Cc2ccccc2)C(=O)OC2CCCC2)c1)NO [Compound 28, (S)-2-[3-(7-Hydroxycarbamoyl-heptanoylamino)-benzylamino]-3-phenyl-propionic acid cyclopentyl ester] |

Second part, the molecule before the results:

| Compound | IC50 [1] | IC50 (Hela cancer cell line) | IC50 (U937 cancer cell line) | IC50 (HUT cancer cell line) |
| --- | --- | --- | --- | --- |
| O=C(CCCCCCC(=O)N1Cc2[nH]c3ccccc3c2[C@H](C(=O)N[C@@H](Cc2ccccc2)C(=O)OC2CCCC2)C1)NO [Compound 58, (S)-2-{[(S)-2-(7-Hydroxycarbamoyl-heptanoyl)-2,3,4,9-tetrahydro-1H-beta-carboline-4-carbonyl]-amino}-3-phenyl-propionic acid cyclopentyl ester] | 101 to 1000 nM | 330 to 3300 nM | 330 to 3300 nM | 330 to 3300 nM |
| O=C(CCCCCCC(=O)N1CCc2c([nH]c3ccccc23)C1CN[C@H](C(=O)O)c1ccccc1)NO (stereo partly drawn) [Compound 43, (S)-{[2-(7-Hydroxycarbamoyl-heptanoyl)-2,3,4,9-tetrahydro-1H-beta-carbolin-1-ylmethyl]-amino}-phenyl-acetic acid] | 101 to 1000 nM | > 3300 nM | > 3300 nM | > 3300 nM |
| CC(C)(C)[C@H](NCc1ccc(CNCc2ccc3cc(C(=O)NO)sc3c2)cc1)C(=O)OC1CCCC1 [Compound 115, (S)-2-(4-{[(2-Hydroxycarbamoyl-benzo[b]thiophen-6-ylmethyl)-amino]-methyl}-benzylamino)-3,3-dimethyl-butyric acid cyclopentyl ester] | 101 to 1000 nM | 330 to 3300 nM | 330 to 3300 nM | 330 to 3300 nM |
| O=C(Cc1ccc(OCCCC(=O)N[C@@H](Cc2ccccc2)C(=O)OC2CCCC2)cc1)Nc1ccc2sc(C(=O)NO)cc2c1 [Compound 102, (S)-2-(4-{4-[(2-Hydroxycarbamoyl-benzo[b]thiophen-5-ylcarbamoyl)-methyl]-phenoxy}-butyrylamino)-3-phenyl-propionic acid cyclopentyl ester] | 101 to 1000 nM | > 3300 nM | 330 to 3300 nM | > 3300 nM |
| CSCC[C@H](NCc1ccc(CNCc2ccc3cc(C(=O)NO)sc3c2)cc1)C(=O)OC1CCCC1 [Compound 110, (S)-2-(4-{[(2-Hydroxycarbamoyl-benzo[b]thiophen-6-ylmethyl)-amino]-methyl}-benzylamino)-4-methylsulfanyl-butyric acid cyclopentyl ester] | < 100 nM | 330 to 3300 nM | < 330 nM | < 330 nM |
| CC(C)C[C@H](NCc1cccc(NCc2ccc3cc(C(=O)NO)sc3c2)c1)C(=O)OC1CCCC1 [Compound 133, (S)-2-{3-[(2-Hydroxycarbamoyl-benzo[b]thiophen-6-ylmethyl)-amino]-benzylamino}-4-methyl-pentanoic acid cyclopentyl ester] | 101 to 1000 nM | 330 to 3300 nM | 330 to 3300 nM | > 3300 nM |
| O=C(CCCCCCC(=O)N1CCCC1C(=O)N[C@@H](Cc1ccccc1)C(=O)OC1CCCC1)NO (stereo partly drawn) [Compound 56, (S)-2-{[1-(7-Hydroxycarbamoyl-heptanoyl)-pyrrolidine-2-carbonyl]-amino}-3-phenyl-propionic acid cyclopentyl ester] | > 1000 nM | > 3300 nM | > 3300 nM | > 3300 nM |
| O=C(CCCCCCNC(=O)c1cc2cc(CCC(=O)N[C@@H](Cc3ccccc3)C(=O)OC3CCCC3)ccc2[nH]1)NO [Compound 100, (S)-2-{3-[2-(6-Hydroxycarbamoyl-hexylcarbamoyl)-1H-indol-5-yl]-propionylamino}-3-phenyl-propionic acid cyclopentyl ester] | < 100 nM | > 3300 nM | 330 to 3300 nM | 330 to 3300 nM |
| O=C(NO)c1cc2ccc(CNc3cccc(CN[C@H](C(=O)OC4CCCC4)c4ccccc4)c3)cc2s1 [Compound 130, (S)-{3-[(2-Hydroxycarbamoyl-benzo[b]thiophen-6-ylmethyl)-amino]-benzyl-amino}-phenyl-acetic acid cyclopentyl ester] | > 1000 nM | > 3300 nM | 330 to 3300 nM | > 3300 nM |
| O=C(CCCCCCC(=O)N1Cc2ccccc2C[C@H]1C(=O)N[C@H](C(=O)OC1CCCC1)c1ccccc1)NO [Compound 44, (S)-{[(S)-2-(7-Hydroxycarbamoyl-heptanoyl)-1,2,3,4-tetrahydro-isoquinoline-3-carbonyl]-amino}-phenyl-acetic acid cyclopentyl ester] | 101 to 1000 nM | > 3300 nM | 330 to 3300 nM | 330 to 3300 nM |
| CC(C)C[C@H](NC(=O)[C@@H]1Cc2ccccc2CN1C(=O)CCCCCCC(=O)NO)C(=O)OC1CCCC1 [Compound 51, (S)-2-{[(S)-2-(7-Hydroxycarbamoyl-heptanoyl)-1,2,3,4-tetrahydro-isoquinoline-3-carbonyl]-amino}-4-methyl-pentanoic acid cyclopentyl ester] | 101 to 1000 nM | > 3300 nM | 330 to 3300 nM | 330 to 3300 nM |
| CCOC(=O)[C@H](Cc1ccccc1)NC(=O)[C@@H]1Cc2ccccc2CN1C(=O)CCCCCCC(=O)NO [Compound 47, (S)-2-{[(S)-2-(7-Hydroxycarbamoyl-heptanoyl)-1,2,3,4-tetrahydro-isoquinoline-3-carbonyl]-amino}-3-phenyl-propionic acid ethyl ester] | 101 to 1000 nM | > 3300 nM | 330 to 3300 nM | 330 to 3300 nM |
| CC(C)C[C@H](NCC1CCC(CNCc2ccc3cc(C(=O)NO)sc3c2)CC1)C(=O)OC1CCCC1 (stereo partly drawn) [Compound 128, (S)-2-[(4-{[(2-Hydroxycarbamoyl-benzo[b]thiophen-6-ylmethyl)-amino]-methyl}-cyclohexylmethyl)-amino]-4-methyl-pentanoic acid cyclopentylester] | 101 to 1000 nM | 330 to 3300 nM | < 330 nM | < 330 nM |
| O=C(NO)c1cc2ccc(CNCc3ccc(CN4CCC[C@H]4C(=O)OC4CCCC4)cc3)cc2s1 [Compound 111, (S)-1-(4-{[(2-Hydroxycarbamoyl-benzo[b]thiophen-6-ylmethyl)-amino]-methyl}-benzyl)-pyrrolidine-2-carboxylic acid cyclopentyl ester] | < 100 nM | < 330 nM | < 330 nM | < 330 nM |
| CC(C)(C)OC[C@H](NCc1cccc(NCc2ccc3cc(C(=O)NO)sc3c2)c1)C(=O)OC1CCCC1 [Compound 132, (S)-3-tert-Butoxy-2-{3-[(2-hydroxycarbamoyl-benzo[b]thiophen-6-ylmethyl)-amino]-benzylamino}-propionic acid cyclopentyl ester] | 101 to 1000 nM | > 3300 nM | 330 to 3300 nM | 330 to 3300 nM |
